Measured values taken from patent US9023985B2, “Glucagon composition” (Arecor Ltd., priority 2010, dated 2015).
Each block holds one compound with its values, some of them ahead of it.

Legend:
[1] = Stability of glucagon in surfactant solutions at room temperature (RP-HPLC, gel formation); type: physicochemical; conditions: for Changes in the native form of glucagon (RP-HPLC) / Size of the native glucagon peak (RP-HPLC): glucagon dissolved with the surfactant, incubation at room temperature for days
Excerpt: […]. In contrast, the size of the native peak diminished in the case of CHAPS to <10%) and in the case of TWEEN® 20 (to about 60%).
Formulating at pH>8 minimized the gel formation.

[2] = Visual assessment of glucagon formulations with different tonicity modifiers, 50° C. incubation; conditions: glucagon 1 mg/ml, 5 mM acetate, 0.075% benzethonium chloride, pH 5.5
Protocol: In some cases, the composition contained a specified concentration of an antioxidant. The effect of the nature and the concentration of the tonicity modifier on the physical stability (i.e., gel formation and/or aggregation) was determined by visual assessment following storage.
In the first experiment, the effects of mannitol and 1,2-propanediol as tonicity modifiers modifiers were compared at 50° C.
In another experiment, the effects of mannitol and glycerol as tonicity modifiers were compared at 50° C.
In another experiment, the effects of mannitol and trehalose as tonicity modifiers were compared at 50° C.

[3] = Visual assessment of glucagon formulations with and without phenol, 50° C. incubation; type: physicochemical; conditions: glucagon 1 mg/ml
Protocol: The pH of both formulations was adjusted to 5.5. […] The appearance of all formulations was noted shortly after preparation and then following storage at 50° C. for specified periods of time.

[4] = 0 days, 1.3 mM butylated hydroxytoluene
[5] = 6 weeks, 1.3 mM butylated hydroxytoluene
[6] = 6 days, 1.3 mM butylated hydroxytoluene
[7] = 50° C. for up to 6 weeks, 5 mM methionine

Changes in the native form of glucagon (RP-HPLC) [1]: no significant changes
Compound: CC(C)(C)CC(C)(C)c1ccc(OCCOCC[N+](C)(C)Cc2ccccc2)cc1 [Benzethonium chloride]

Visual assessment (50° C. incubation), extent of visible precipitation [2, 4]: 1 | Visual assessment (50° C. incubation), extent of visible precipitation [2, 5]: 2 | Visual appearance after incubation ([2]; 50° C. for 6 weeks, 1.3 mM butylated hydroxytoluene): signs of precipitation | Visual assessment (50° C. incubation), extent of visible precipitation [2, 6]: 1
Compound: OCC(O)CO [Glycerol (250 mM), Glycerol]

Compound: C[C@H](CCC(=O)NCCC[N+](C)(C)CCCS(=O)(=O)[O-])[C@H]1CC[C@H]2[C@@H]3[C@H](O)C[C@@H]4C[C@H](O)CC[C@]4(C)[C@H]3C[C@H](O)[C@]12C [CHAPS]
Size of the native glucagon peak (RP-HPLC) [1]: < 10%

Compound: Oc1ccccc1 [phenol]
Gel formation and/or aggregation on incubation [3]: delay aggregation and gel formation considerably farther

Size of the native glucagon peak (RP-HPLC) [1]: about 60%
Compound: TWEEN ® 20

Visual assessment (50° C. incubation), extent of visible precipitation [2, 4]: 1 | Visual assessment (50° C. incubation), extent of visible precipitation [2, 5]: 1 | Visual appearance after incubation [2, 7]: remained as a clear liquid | Visual assessment (50° C. incubation), extent of visible precipitation [2, 6]: 1
Compound: OC[C@@H](O)[C@@H](O)[C@H](O)[C@H](O)CO [Mannitol (250 mM), Mannitol]

Visual appearance after incubation [2, 7]: remained as a clear liquid
Compound: OC[C@H]1O[C@H](O[C@H]2O[C@H](CO)[C@@H](O)[C@H](O)[C@H]2O)[C@H](O)[C@@H](O)[C@@H]1O [trehalose (250 and 500 mM), trehalose]

Changes in the native form of glucagon (RP-HPLC) [1]: no significant changes
Compound: Benzalkonium chloride

Compound: CC(O)CO (stereo not drawn) [1,2-propanediol]
Onset of aggregation and gel formation compared with mannitol ([2]; 50° C.): much earlier onset of aggregation and gel formation

Compound: CCCCCCCCCCCCCCCC[N+](C)(C)C.[Br-] [Cetrimide, cetyl trimethylammonium bromide]
Changes in the native form of glucagon (RP-HPLC) [1]: no significant changes

Compound: Sodium deoxycholate
Changes in the native form of glucagon (RP-HPLC) [1]: no significant changes | Gel formation of dissolved glucagon ([1]; prepared at pH 7.5, incubation at room temperature): tendency to form gels
